Results as given in patent US20170202973A1 (GENENTECH, INC., priority 2009, published 2017).
Like-named read-outs stand apart in the source and are kept apart here.

Experiments:
[1] = cited from earlier work
[2] = system: HER2-positive metastatic breast cancer; conditions: for Patients Censored, % / Patients Censored, number / Patients Progressed, % / Patients Progressed, number: PFS analysis; for CR / Clinical Benefit Rate / Missing tumor response / Objective Response Rate, % / PD / PR / UE: N = 110, updated analysis
Procedure: The analysis of objective response rate was conducted with patient data collected through approximately 26 weeks after the last patient is enrolled in the study. This study enrolled patients with HER2-positive MBC. […] Patients will be required to have HER2-positive status, as evidenced by either 3+ HER2 protein overexpression determined by immunohistochemistry (IHC) or HER2 gene amplification determined by FISH.
Efficacy Assessments: Tumor responses were categorized as complete response (CR), partial response (PR), stable disease (SD), or progressive disease (PD) according to the Response Evaluation Criteria for Solid Tumors (RECIST). Tumor assessments (CT and/or magnetic resonance imaging [MRI] scans) were performed approximately every 6 weeks irrespective of dose delays, interruptions, or reductions. Bone and brain scans (either CT or Mill) were performed at baseline and if clinically indicated during the study. Patient management decisions were made based on tumor assessments performed by investigators. The primary study endpoints related to response were determined by an independent radiologic review of patient scans, with assessments based on investigator reporting being secondary. If each non-target lesion cannot be assessed at a follow-up tumor assessment timepoint, patients may still be considered evaluable for timepoint response as long as all target lesions are measured. Patients with non-target lesions that were not assessed at a timepoint were assessed as having a partial response, stable disease, or progressive disease. All lesions, target and non-target, were assessed before a response was considered confirmed. To reduce the frequency of unevaluable non-target lesions, bone lesions visible on baseline CT scan as non-target lesion(s) for follow-up, were compared with bone lesions identified on the baseline bone scan where possible if lesions are not visible on both modalities or as easily and reproducibly assessed.
Efficacy Assessments: An assessment of the objective response rate, the primary objective of this trial, was based on the RECIST and confirmed by independent review of baseline and follow-up assessments obtained every 6 weeks. All known sites of disease should be reassessed at each timepoint whenever possible. Because bone involvement is a common finding in patients with MBC, a bone scan at baseline may be conducted. In addition, patients with non-target lesions that were not assessed at a timepoint were assessed as having a partial response, stable disease, or progressive disease. All lesions, target and non-target (including bone lesions), were assessed before a complete response can be considered confirmed.
Efficacy Outcome Measures: The primary efficacy outcome measure is objective response (defined as a complete or partial response determined on two consecutive occasions 4 weeks apart), as assessed through independent radiologic review using RECIST. The secondary efficacy outcome measures are as follows: Duration of objective response, as assessed through independent radiologic review using RECIST; PFS, as assessed through independent radiologic review using RECIST; CBR based on independent radiologic review using RECIST; Objective response based on investigator assessments using RECIST; Duration of objective response based on investigator assessments using RECIST; PFS based on investigator assessments using RECIST; and CBR based on investigator assessments using RECIST.
The analysis of objective response rate was conducted with patient data collected through approximately 26 weeks after the last patient was enrolled in the study. In addition, the final analysis of safety and all secondary and exploratory endpoints will be updated with sufficient data when available (estimated to be approximately 10 months after the last patient is enrolled in the study). After the final analysis, the study was closed. […] This study enrolled patients with HER2-positive MBC.

[3] = Investigator, N = 110, initial analysis
[4] = Patients with HER2+ retrospectively confirmed, n = 76, INV, initial analysis
[5] = Patients with HER2+ retrospectively confirmed, n = 76, IRF, initial analysis
[6] = Patients with HER2+ retrospectively confirmed, n = 80, INV, updated analysis
[7] = Patients with HER2+ retrospectively confirmed, n = 80, IRF, updated analysis
[8] = Patients with HER2 normal, n = 15, INV, initial analysis
[9] = Patients with HER2 normal, n = 15, IRF, initial analysis
[10] = of 110 treated, 70 discontinued, data cutoff

COc1cc2cc(c1Cl)N(C)C(=O)C[C@H](OC(=O)[C@H](C)N(C)C(C)=O)[C@]1(C)O[C@H]1[C@H](C)[C@@H]1C[C@@](O)(NC(=O)O1)[C@H](OC)/C=C/C=C(\C)C2 [maytansine]
dose-limiting toxicity (DLT) ([1]; approximately 800 patients, 2.0 mg/m^2 every 3 weeks, single dose or 3 consecutive days): gastrointestinal | activity in the clinic ([1]; at doses that could be safely delivered): modest

trastuzumab-MCC-DM1 [T-DM1]
Patients Censored, % ([2]; INV, all treated patients): 45.5% | Patients Censored, number ([2]; INV, all treated patients): 50 patients | Patients Progressed, % ([2]; INV, all treated patients): 54.5% | Patients Progressed, number ([2]; INV, all treated patients): 60 patients | PFS (months) 25-75% ([2]; INV, all treated patients): 2.8-11.1 months | Missing tumor response, % ([2]; IRF, N = 110, initial analysis): (0.9%) | PD, % ([2]; IRF, N = 110, initial analysis): (18.2%) | PR, % ([2]; IRF, N = 110, initial analysis): (32.7%) | UE, % ([2]; IRF, N = 110, initial analysis): (1.8%) | CR ([2]; IRF): 0% | Clinical Benefit Rate ([2]; IRF): 48.2% | Missing tumor response ([2]; IRF): 0.9% | Objective Response Rate, % ([2]; IRF): 34.5% | PD ([2]; IRF): 18.2% | PR ([2]; IRF): 34.5% | UE ([2]; IRF): 1.8% | Patients Censored, % ([2]; IRF, all treated patients): 54.5% | Patients Censored, number ([2]; IRF, all treated patients): 60 patients | Patients Progressed, % ([2]; IRF, all treated patients): 45.5% | Patients Progressed, number ([2]; IRF, all treated patients): 50 patients | PFS (months) 25-75% ([2]; IRF, all treated patients): 2.6-9.7 months | PFS (months) median ([2]; IRF, all treated patients, initial analysis): 7.3 months | median PFS ([2]; IRF, updated analysis, all treated patients, 95% CI (4.2-8.4)): 6.9 | CR, % [2, 3]: (1.8%) | Missing tumor response, % [2, 3]: (2.7%) | PD, % [2, 3]: (13.6%) | PR, % [2, 3]: (28.2%) | UE, % [2, 3]: (0.9%) | CR ([2]; Investigator): 4.5% | Clinical Benefit Rate ([2]; Investigator): 46.4% | Missing tumor response ([2]; Investigator): 0.9% | Objective Response Rate, % ([2]; Investigator): 32.7% | PD ([2]; Investigator): 14.5% | PR ([2]; Investigator): 28.2% | UE ([2]; Investigator): 0.9% | Clinical benefit rate, % [2, 4]: 47.4% | ORR, % [2, 4]: 36.8% | Clinical benefit rate, % [2, 5]: 52.6% | ORR, % [2, 5]: 39.5% | Clinical benefit rate, % [2, 6]: (53.8%) | ORR, % [2, 6]: (40.0%) | Clinical benefit rate, % [2, 7]: (55.0%) | ORR, % [2, 7]: (41.3%) | Clinical benefit rate, % [2, 8]: 20.0% | ORR, % [2, 8]: 13.3% | Clinical benefit rate, % [2, 9]: 26.7% | ORR, % [2, 9]: 20.0% | patients that discontinued treatment with progressive disease, % [2, 10]: 52.7% | patients that discontinued treatment with progressive disease, number [2, 10]: 58 patients
